The source of these data is US20240025863A1, “SOS1 PROTEIN DEGRADERS, PHARMACEUTICAL COMPOSITIONS THEREOF, AND THEIR THERAPEUTIC APPLICATIONS” (BioTheryX, Inc., priority 2020, published 2024).

What all share (type): cell-based
One test concerns SW480 cells (G12V). Briefly: Cell viability assay (CellTiter-Glo), SW480 cells. To be noted: Homo sapiens, 72 h; SW480 cells, 3 days incubation, CellTiter-Glo luminescence; read-out: Inhibition of Cancerous Cells IC50 SW480 (G12V). Here is the method: (§1) H358, H23, SW48, and AsPC-1 cells were cultured in RPMI 1640 media supplemented with 10% fetal bovine serum, streptomycin, and penicillin. Lovo and SW480 cells were cultured in DMEM media supplemented with 10% fetal bovine serum, streptomycin, and penicillin. The cell lines were plated in their respective medium supplemented with 2.5% fetal bovine serum, streptomycin, and penicillin. All cell lines were plated in white walled 96-well plates at 2,000 cells/well or 384-well plates at 500 cells/well, except Lovo, which were plated at 4,000 or 1,000 cells/well, respectively. The cells were incubated in DMSO (control) or a compound for 3 days at 37° C. under 5% CO2. A CELLTITER-GLO® reagent (100 μL) was then added to each well. After a 10 min incubation with shaking, luminescence was measured using an ENVISION® multimode plate reader.

In another test the test system is Lovo cells (G13D). The test can be described thus: Cell viability assay (CellTiter-Glo), Lovo cells. As to conditions: Homo sapiens, 72 h; Lovo cells, 3 days incubation, CellTiter-Glo luminescence; read-out: Inhibition of Cancerous Cells IC50 Lovo (G13D). Here is the method: as §1
(In general: In ATP-based viability assays light output follows the ATP content of the culture.)

For a further test, the system named is SW48 cells (wt). The test can be described thus: Cell viability assay (CellTiter-Glo), SW48 cells. As to conditions: Homo sapiens, 72 h; SW48 cells, 3 days incubation, CellTiter-Glo luminescence; read-out: Inhibition of Cancerous Cells IC50 SW48 (wt). Here is the method: as §1
The test system of a further test is H358 cells (G12C). Briefly: Cell viability assay (CellTiter-Glo), H358 cells. As to conditions: Homo sapiens, NCI-H358, 72 h; H358 cells, 3 days incubation, CellTiter-Glo luminescence; read-out: Inhibition of Cancerous Cells IC50 H358 (G12C). Here is the method:
as §1

Broadly, the IC50 is the concentration needed to halve the response being measured. Turning to `CNCc1ccccc1-c1csc([C@@H](C)Nc2nc(C)nc3cc(OCCCCCCCN4CCC(c5cc(F)cc6c5CN(C5CCC(=O)N(C)C5=O)C6=O)CC4)c(OC)cc23)c1` (stereo partly drawn) [Compound A52, 3-(6-Fluoro-4-(1-(7-((6-methoxy-2-methyl-4-(((R)-1-(4-(2-((methylamino)-methyl)phenyl)thiophen-2-yl)ethyl)amino)quinazolin-7-yl)oxy)heptyl)piperidin-4-yl)-1-oxoisoindolin-2-yl)-1-methylpiperidine-2,6-dione], the concentration for half-maximal inhibition (IC50) in the test with SW480 cells (G12V) stood at 170 nM; in the test on Lovo cells (G13D), 42 nM; in the test with SW48 cells (wt) it was 170 nM; in the test on H358 cells (G12C), 210 nM.

Regarding `CNCc1ccccc1-c1csc([C@H](C)Nc2nc(C)nc3cc(OCCCCCCCN4CCC(c5cc(F)cc6c5CN(C5CCC(=O)N(C)C5=O)C6=O)CC4)c(OC)cc23)c1` (stereo partly drawn) [Compound A53, 3-(6-Fluoro-4-(1-(7-((6-methoxy-2-methyl-4-(((S)-1-(4-(2-((methylamino)-methyl)phenyl)thiophen-2-yl)ethyl)amino)quinazolin-7-yl)oxy)heptyl)piperidin-4-yl)-1-oxoisoindolin-2-yl)-1-methylpiperidine-2,6-dione], the IC50 in the test with SW480 cells (G12V) was found to be 170 nM; in the test on Lovo cells (G13D) it was 68 nM; in the test on SW48 cells (wt) it was 170 nM; with H358 cells (G12C), 230 nM.

For `CNCc1ccccc1-c1csc([C@@H](C)Nc2nc(C)nc3c(CCCCCCCN4CCC(c5cc(F)cc6c5CN(C5CCC(=O)NC5=O)C6=O)CC4)c(OC)c(OC)cc23)c1` (stereo partly drawn) [Compound A54, 3-(4-(1-(7-(6,7-Dimethoxy-2-methyl-4-(((R)-1-(4-(2-((methylamino)methyl)-phenyl)thiophen-2-yl)ethyl)amino)quinazolin-8-yl)heptyl)piperidin-4-yl)-6-fluoro-1-oxoisoindolin-2-yl)piperidine-2,6-dione], the IC50 in the test with SW480 cells (G12V) was 240 nM; in the test with Lovo cells (G13D), 130 nM; in the test on SW48 cells (wt), 200 nM; with H358 cells (G12C) it was 360 nM.

In the case of `COc1cc2c(N[C@H](C)c3cccc(Br)c3)nc(C)nc2cc1OCCCCCN1CCN(C(=O)CNc2cc(F)cc3c2CN(C2CCC(=O)NC2=O)C3=O)CC1` (stereo partly drawn) [Compound A55, 3-(4-((2-(4-(5-((4-(((R)-1-(3-Bromophenyl)ethyl)amino)-6-methoxy-2-methyl-quinazolin-7-yl)oxy)pentyl)piperazin-1-yl)-2-oxoethyl)amino)-6-fluoro-1-oxoisoindolin-2-yl)piperidine-2,6-dione], the 50% inhibitory concentration (IC50) in the test on SW480 cells (G12V) was 1800 nM; in the test on Lovo cells (G13D), 640 nM; in the test with SW48 cells (wt), 1400 nM; in the test with H358 cells (G12C), 2000 nM.

For the compound `CNCc1ccccc1-c1csc([C@H](C)Nc2nc(C)nc3c(CCCCCCCN4CCC(c5cc(F)cc6c5CN(C5CCC(=O)NC5=O)C6=O)CC4)c(OC)c(OC)cc23)c1` (stereo partly drawn) [Compound A56, 3-(4-(1-(7-(6,7-Dimethoxy-2-methyl-4-(((S)-1-(4-(2-((methylamino)methyl)-phenyl)thiophen-2-yl)ethyl)amino)quinazolin-8-yl)heptyl)piperidin-4-yl)-6-fluoro-1-oxoisoindolin-2-yl)piperidine-2,6-dione], the IC50 in the test on SW480 cells (G12V) came to 260 nM; with Lovo cells (G13D) it was 150 nM; with SW48 cells (wt), 190 nM; with H358 cells (G12C), 360 nM.

`COc1cc2c(N[C@H](C)c3cccc(Br)c3)nc(C)nc2cc1OCCCCN1CCN(C(=O)CNc2cc(F)cc3c2CN(C2CCC(=O)NC2=O)C3=O)CC1` (stereo partly drawn) [Compound A57, 3-(4-((2-(4-(4-((4-(((R)-1-(3-Bromophenyl)ethyl)amino)-6-methoxy-2-methyl-quinazolin-7-yl)oxy)butyl)piperazin-1-yl)-2-oxoethyl)amino)-6-fluoro-1-oxoisoindolin-2-yl)piperidine-2,6-dione]: the IC50 with SW480 cells (G12V) amounted to 5200 nM; in the test with Lovo cells (G13D), 900 nM; in the test on SW48 cells (wt) it was 2900 nM; in the test with H358 cells (G12C) it was 3300 nM.

Regarding `COc1cc2c(N[C@H](C)c3cccc(Br)c3)nc(C)nc2cc1OCCCCCCCCN1CCC(c2cc(F)cc3c2CN(C2CCC(=O)NC2=O)C3=O)CC1` (stereo partly drawn) [Compound A58, 3-(4-(1-(8-((4-(((R)-1-(3-Bromophenyl)ethyl)amino)-6-methoxy-2-methyl-quinazolin-7-yl)oxy)octyl)piperidin-4-yl)-6-fluoro-1-oxoisoindolin-2-yl)piperidine-2,6-dione], the 50% inhibitory concentration (IC50) in the test with SW480 cells (G12V) was determined as 360 nM; in the test on Lovo cells (G13D), 300 nM; with SW48 cells (wt) it was 420 nM; in the test on H358 cells (G12C), 1200 nM.

With `COc1cc2c(N[C@H](C)c3cccc(Br)c3)nc(C)nc2cc1OCCCCCCNC(=O)[C@H](CC(C)C)NC(=O)[C@@H](O)[C@H](N)Cc1ccccc1` [Compound B6, (S)-2-((2S,3R)-3-amino-2-hydroxy-4-phenylbutanamido)-N-(6-((4-(((R)-1-(3-bromophenyl)ethyl)amino)-6-methoxy-2-methylquinazolin-7-yl)oxy)hexyl)-4-methylpentanamide], the IC50 with SW480 cells (G12V) was 660 nM; in the test with Lovo cells (G13D), 1000 nM; in the test with SW48 cells (wt), 680 nM; with H358 cells (G12C) it was 1200 nM.

With `COc1cc2c(N[C@H](C)c3cccc(Br)c3)nc(C)nc2cc1OCCCCCCCCCCNC(=O)[C@H](CC(C)C)NC(=O)[C@@H](O)[C@H](N)Cc1ccccc1` [Compound B8, (S)-2-((2S,3R)-3-Amino-2-hydroxy-4-phenylbutanamido)-N-(10-((4-(((R)-1-(3-bromophenyl)ethyl)amino)-6-methoxy-2-methylquinazolin-7-yl)oxy)decyl)-4-methylpentanamide], the IC50 came out at 550 nM with SW480 cells (G12V), 390 nM in the test on Lovo cells (G13D), 1000 nM in the test on SW48 cells (wt) and 1200 nM in the test on H358 cells (G12C).

As to `COc1ccc(C2=N[C@@H](c3ccc(Cl)cc3)[C@@H](c3ccc(Cl)cc3)N2C(=O)N2CCN(CC(=O)NCCCCCCOc3cc4nc(C)nc(N[C@H](C)c5cccc(Br)c5)c4cc3OC)C(=O)C2)c(OC(C)C)c1` [Compound C1, 2-(4-((4S,5R)-4,5-Bis(4-chlorophenyl)-2-(2-isopropoxy-4-methoxyphenyl)-4,5-dihydro-1H-imidazole-1-carbonyl)-2-oxopiperazin-1-yl)-N-(6-((4-(((R)-1-(3-bromophenyl)-ethyl)amino)-6-methoxy-2-methylquinazolin-7-yl)oxy)hexyl)acetamide], the IC50 with SW480 cells (G12V), with Lovo cells (G13D), in the test on SW48 cells (wt) and in the test on H358 cells (G12C) was > 10000 nM each time.

Take `COc1ccc(C2=N[C@@H](c3ccc(Cl)cc3)[C@@H](c3ccc(Cl)cc3)N2C(=O)N2CCN(CC(=O)NCCCCCCCCOc3cc4nc(C)nc(N[C@H](C)c5cccc(Br)c5)c4cc3OC)C(=O)C2)c(OC(C)C)c1` [Compound C2, 2-(4-((4S,5R)-4,5-bis(4-chlorophenyl)-2-(2-isopropoxy-4-methoxyphenyl)-4,5-dihydro-1H-imidazole-1-carbonyl)-2-oxopiperazin-1-yl)-N-(8-((4-(((R)-1-(3-bromophenyl)-ethyl)amino)-6-methoxy-2-methylquinazolin-7-yl)oxy)octyl)acetamide]: the 50% inhibitory concentration (IC50) in the test with SW480 cells (G12V), in the test on Lovo cells (G13D), in the test with SW48 cells (wt) and with H358 cells (G12C) was > 10000 nM each time.

On to `COc1ccc(C2=N[C@@H](c3ccc(Cl)cc3)[C@@H](c3ccc(Cl)cc3)N2C(=O)N2CCN(CC(=O)NCCCCCCCCCCOc3cc4nc(C)nc(N[C@H](C)c5cccc(Br)c5)c4cc3OC)C(=O)C2)c(OC(C)C)c1` [Compound C3, 2-(4-((4S,5R)-4,5-Bis(4-chlorophenyl)-2-(2-isopropoxy-4-methoxyphenyl)-4,5-dihydro-1H-imidazole-1-carbonyl)-2-oxopiperazin-1-yl)-N-(10-((4-(((R)-1-(3-bromophenyl)-ethyl)amino)-6-methoxy-2-methylquinazolin-7-yl)oxy)decyl)acetamide], for which the IC50 in the test with SW480 cells (G12V), in the test with Lovo cells (G13D), with SW48 cells (wt) and in the test on H358 cells (G12C) was > 10000 nM in each case.

With `COc1ccc(C2=N[C@@H](c3ccc(Cl)cc3)[C@@H](c3ccc(Cl)cc3)N2C(=O)N2CCN(CC(=O)NCCCCCCCCOc3cc4nc(C)nc(N[C@H](C)c5cccc(Br)c5)c4cc3OC)CC2)c(OC(C)C)c1` [Compound C4, 2-(4-((4S,5R)-4,5-bis(4-chlorophenyl)-2-(2-isopropoxy-4-methoxyphenyl)-4,5-dihydro-1H-imidazole-1-carbonyl)piperazin-1-yl)-N-(8-((4-(((R)-1-(3-bromophenyl)ethyl)-amino)-6-methoxy-2-methylquinazolin-7-yl)oxy)octyl)acetamide], the IC50 in the test with SW480 cells (G12V), in the test on Lovo cells (G13D), in the test on SW48 cells (wt) and in the test on H358 cells (G12C) was > 10000 nM in each case.
